Test results published in patent US9650339B2, “Inhibitors of histone demethylases” (Gilead Sciences, Inc., priority 2013, dated 2017).

Tests used:
Type in all cases: cell-based
KDM6B = biological target: T1, KDM6B (Homo sapiens, UniProt O15054); test: Histone lysine demethylase immunofluorescence assay, U2OS cells transfected with KDM6B; details: U2OS cells transfected with pCMVHA KDM6B; mark detected H3K27me2; 20 hours
T1 construct: (a.a. 1026-1682); host or cells: U2OS
Experimental: (§1) U2OS cells were seeded 24 hours before transfection. Transfection was performed with Fugene HD transfection reagent as recommended by the manufacturer. 6 hours after transfection, the cells were harvested and seeded into multi well plates into media containing compound. The media used was DMEM containing 10% FBS and pen/strep. 20 hours after incubation of cells with compounds, the cells were washed in PBS, harvested by fixation with formaldehyde 4% aqueous solution, and washed in PBS. Subsequently, the cells were permeabilized in PBS with 0.2% Triton X-100 for. Blocking was performed in PBS with 0.2% Triton X-100 and 5% FBS. The cells were incubated with primary antibodies in blocking solution over night at 4° C. The primary antibodies used in the assays were HA.11 (Covance, MMS-101P) and the antibody detecting the mark specified in the table below. After incubation with primary antibodies, the cells were washed with PBS, incubated with secondary antibodies (Alexa fluor 594 goat anti rabbit IgG, Invitrogen, A11012; Alexa flour 488 donkey anti mouse IgG, Invitrogen, A21202) and Hoechst, (Sigma, 33342) in blocking solution, and washed again with PBS. Finally, PBS was added and high throughput imaging and analysis were performed by an IN Cell Analyzer 1000 (GE Healthcare). The robot software analyzed individual cells and divided these into HA+ (transfected cells) and HA− (non-transfected cells). The IC50 values were based on an average measure of the staining of the mark specified in the table below in the transfected cells.

KDM4A = biological target: T2, KDM4A (Homo sapiens, UniProt O75164); test: Histone lysine demethylase immunofluorescence assay, U2OS cells transfected with KDM4A; details: U2OS cells transfected with pCMVHA KDM4A; mark detected H3K9me3; 20 hours
T2 construct: Full length; host or cells: U2OS
T2 sequence (O75164 1-1064): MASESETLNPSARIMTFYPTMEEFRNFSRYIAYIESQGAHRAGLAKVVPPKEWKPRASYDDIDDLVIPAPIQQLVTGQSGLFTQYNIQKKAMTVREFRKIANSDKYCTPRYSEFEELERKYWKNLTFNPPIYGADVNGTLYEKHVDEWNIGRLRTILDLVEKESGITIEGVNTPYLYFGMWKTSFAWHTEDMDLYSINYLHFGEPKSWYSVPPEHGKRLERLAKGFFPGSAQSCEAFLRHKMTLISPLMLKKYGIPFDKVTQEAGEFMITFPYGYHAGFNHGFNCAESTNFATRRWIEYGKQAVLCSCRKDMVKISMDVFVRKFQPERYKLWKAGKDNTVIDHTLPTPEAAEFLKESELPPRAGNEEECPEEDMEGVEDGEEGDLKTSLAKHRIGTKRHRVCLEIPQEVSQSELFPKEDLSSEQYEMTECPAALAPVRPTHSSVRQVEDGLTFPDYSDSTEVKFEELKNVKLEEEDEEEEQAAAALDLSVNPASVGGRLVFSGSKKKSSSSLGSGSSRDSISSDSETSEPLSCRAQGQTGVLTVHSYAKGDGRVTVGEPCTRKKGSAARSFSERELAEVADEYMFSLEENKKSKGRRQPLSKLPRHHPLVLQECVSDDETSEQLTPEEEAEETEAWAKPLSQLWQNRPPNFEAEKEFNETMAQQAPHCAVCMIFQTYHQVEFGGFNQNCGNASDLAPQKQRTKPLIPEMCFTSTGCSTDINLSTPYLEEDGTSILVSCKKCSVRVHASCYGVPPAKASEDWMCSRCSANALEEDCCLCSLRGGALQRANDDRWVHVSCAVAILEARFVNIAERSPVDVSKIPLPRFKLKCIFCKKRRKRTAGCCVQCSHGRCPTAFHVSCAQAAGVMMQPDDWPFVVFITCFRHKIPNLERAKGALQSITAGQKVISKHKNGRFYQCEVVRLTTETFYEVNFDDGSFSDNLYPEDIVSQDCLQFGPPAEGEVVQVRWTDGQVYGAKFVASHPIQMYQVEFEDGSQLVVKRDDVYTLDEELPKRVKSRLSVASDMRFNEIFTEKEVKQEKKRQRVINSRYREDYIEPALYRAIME
Experimental: as §1

KDM2A = biological target: T3, KDM2A (Homo sapiens, UniProt Q9Y2K7); test: Histone lysine demethylase immunofluorescence assay, U2OS cells transfected with KDM2A; details: U2OS cells transfected with pCMVHA KDM2A; mark detected H3K36me2; 20 hours
T3 construct: Full length; host or cells: U2OS
T3 sequence (Q9Y2K7 1-1162): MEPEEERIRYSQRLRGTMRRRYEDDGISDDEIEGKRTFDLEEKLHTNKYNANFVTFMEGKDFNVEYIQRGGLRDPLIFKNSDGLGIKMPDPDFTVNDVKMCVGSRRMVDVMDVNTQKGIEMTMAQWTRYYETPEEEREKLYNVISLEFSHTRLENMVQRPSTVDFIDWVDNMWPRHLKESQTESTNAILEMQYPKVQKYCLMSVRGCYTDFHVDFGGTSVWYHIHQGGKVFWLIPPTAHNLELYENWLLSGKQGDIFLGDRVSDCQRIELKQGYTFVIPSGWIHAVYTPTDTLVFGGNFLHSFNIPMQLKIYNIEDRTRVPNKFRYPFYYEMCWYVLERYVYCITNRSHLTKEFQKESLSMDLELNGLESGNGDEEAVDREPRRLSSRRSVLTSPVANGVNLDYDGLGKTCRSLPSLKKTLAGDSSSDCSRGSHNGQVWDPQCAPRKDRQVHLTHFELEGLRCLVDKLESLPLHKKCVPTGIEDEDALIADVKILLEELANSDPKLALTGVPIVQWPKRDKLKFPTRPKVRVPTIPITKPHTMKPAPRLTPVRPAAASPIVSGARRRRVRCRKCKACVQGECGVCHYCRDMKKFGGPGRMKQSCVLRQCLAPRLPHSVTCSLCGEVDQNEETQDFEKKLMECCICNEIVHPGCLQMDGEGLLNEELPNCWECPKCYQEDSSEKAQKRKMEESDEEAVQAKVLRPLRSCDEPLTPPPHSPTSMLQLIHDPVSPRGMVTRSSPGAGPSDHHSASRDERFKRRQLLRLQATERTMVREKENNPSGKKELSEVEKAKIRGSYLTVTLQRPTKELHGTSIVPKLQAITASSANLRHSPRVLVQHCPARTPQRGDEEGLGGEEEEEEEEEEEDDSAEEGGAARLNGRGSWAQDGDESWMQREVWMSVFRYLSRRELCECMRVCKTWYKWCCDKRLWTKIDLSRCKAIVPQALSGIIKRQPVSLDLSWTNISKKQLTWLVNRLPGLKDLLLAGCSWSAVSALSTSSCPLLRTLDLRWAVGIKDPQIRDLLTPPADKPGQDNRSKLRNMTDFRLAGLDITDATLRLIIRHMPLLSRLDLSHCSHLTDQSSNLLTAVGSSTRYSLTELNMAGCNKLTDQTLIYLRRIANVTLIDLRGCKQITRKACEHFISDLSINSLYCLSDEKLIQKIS
Experimental: as §1

T1 sequence (O15054 1026-1682 isoform O15054-1): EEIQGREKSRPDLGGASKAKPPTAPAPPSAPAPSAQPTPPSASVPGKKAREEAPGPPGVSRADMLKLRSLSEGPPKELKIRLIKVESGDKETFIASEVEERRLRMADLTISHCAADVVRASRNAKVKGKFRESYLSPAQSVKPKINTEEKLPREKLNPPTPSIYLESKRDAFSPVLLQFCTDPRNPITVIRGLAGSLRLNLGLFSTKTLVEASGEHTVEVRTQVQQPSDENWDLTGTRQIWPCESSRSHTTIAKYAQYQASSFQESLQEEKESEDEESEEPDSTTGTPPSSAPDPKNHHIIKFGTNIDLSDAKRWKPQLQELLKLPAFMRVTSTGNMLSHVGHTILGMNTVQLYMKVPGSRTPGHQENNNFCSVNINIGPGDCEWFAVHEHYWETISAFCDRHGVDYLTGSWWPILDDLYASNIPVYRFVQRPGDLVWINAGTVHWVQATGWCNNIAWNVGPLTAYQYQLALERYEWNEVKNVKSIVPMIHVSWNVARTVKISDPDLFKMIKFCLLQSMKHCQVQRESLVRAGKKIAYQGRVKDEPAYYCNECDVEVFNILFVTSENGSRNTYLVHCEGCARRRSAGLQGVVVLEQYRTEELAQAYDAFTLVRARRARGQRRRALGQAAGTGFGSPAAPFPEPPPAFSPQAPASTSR

SMILES	IC50 (KDM6B) [nM]	IC50 (KDM4A) [nM]	IC50 (KDM2A) [nM]
CCN(CCN(C)C)C(=O)CNCc1cc(CNC(=O)C(F)(F)F)ccn1 [Compound 25, N-[(2-{[({[2-(dimethylamino)ethyl]-(ethyl)carbamoyl}-methyl)amino]methyl}-pyrtdin-4-yl)methyl]-2,2,2-trifluoroacetamide]	> 2500	250 to 2500	> 2500
CCN(CCN(C)C)C(=O)CNCc1cc(C2OCC3(CC3)CN2C(=O)C(F)(F)F)ccn1 (stereo not drawn) [Compound 91, N-[2--(dimethylamino)-ethyl]-N-ethyl-2-[({4-[7-(trifluoroacetyl)-5-oxa-7-azaspiro[2.5]-octan-6-yl]pyridin-2-yl}methyl)amino]-acetamide]	> 2500	< 250	> 2500
